# Results published in patent US12624004B2 (Fudan University, priority 2019, dated 2026).
# Test system: Female mice
# Experiment: In vivo hot plate method analgesia test
# In short: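 Female mice (~20 g) on a 55° C hot plate, hindpaw response latency as pain threshold (pre-screen 5–30 s, 60 s cut-off). Latencies at 15, 30, 60 and 120 min after intraperitoneal dosing. %MPE = (post−pre latency)/(60−pre)×100, ED50 derived from %MPE.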
smiles,measurement,setting,value
"COc1cccc(C2(O)CCCCC2CN(C)C)c1 (stereo not shown) [Tramadol, reference compound]",analgesic effect,"Table 1-2, hot plate, 5 mg/kg dose",no analgesic effect
same,Maximum percentage effective analgesic (% MPE),"Table 1-2, hot plate, 50 mg/kg dose",64.5%
same,analgesic effect,"Table 2-2, hot plate, at 5 mg/kg or 50 mg/kg dose",no analgesic effect
same,% MPE,"Table 2-2, hot plate, tramadol, dose of this value not clearly printed",64.5%
same,analgesic effect,"Table 3-2, hot plate, @10 mg/kg",no effective
same,% MPE,"Table 3-2, hot plate, @50 mg/kg",64.5%
same,analgesic effect,"Table 4-2, hot plate, 10 mg/kg dose",no analgesic effect
same,% MPE,"Table 4-2, hot plate, 50 mg/kg dose",64.5%
same,analgesic effect,"Table 5-2, hot plate, 10 mg/kg dose",no analgesic effect
same,Maximum percentage effective analgesia (% MPE),"Table 5-2, hot plate, 50 mg/kg dose",64.5%
